Consider seven molecules from PubChem BioAssay (NCI).

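48-hour exposure; five concentrations; linearly interpolated endpoints. TGI is the concentration that stops growth completely.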 Bounds are passed on as bounds.

Some test systems named below: TK-10 renal; MDA-N; DU-145 prostate; 786-0 renal; HCT-15 colon; LOX IMVI melanoma; OVCAR-3 ovarian; MDA-MB-231 breast; CCRF-CEM leukemia; HT29 colon; UACC-257 melanoma; RXF 393 renal; MCF7 breast; HS 578T breast; ACHN renal; SR leukemia; A498 renal; SK-MEL-2 melanoma; T-47D breast; NCI-H522 lung.
Experiment in all cases: growth of human tumour cells (NCI), 48 h

On to `COC(=O)c1nsc(OC)c1Cl`, for which the TGI in the assay on TK-10 renal, in the assay with MDA-N, in the assay with DU-145 prostate, with 786-0 renal, with HCT-15 colon and in the assay on LOX IMVI melanoma was > 100 µM each time. Besides, the TGI with OVCAR-3 ovarian, in the assay with MDA-MB-231 breast, in the assay with CCRF-CEM leukemia, in the assay with HT29 colon, with UACC-257 melanoma and in the assay on RXF 393 renal was > 100 µM throughout. Besides, the TGI with MCF7 breast and in the assay on HS 578T breast was > 100 µM in each case.

For the molecule `CNCCCn1c2ccccc2c2c3c(c(-c4ccsc4)cc21)C(=O)NC3=O`, the TGI worked out at 3.23 µM in the assay with TK-10 renal; 1.89 µM in the assay with DU-145 prostate; 1.23 µM in the assay with ACHN renal; 0.349 µM in the assay on SR leukemia; 1.48 µM in the assay on 786-0 renal; 2.74 µM in the assay with HCT-15 colon. The TGI was < 0.0254 µM with A498 renal; 2.6 µM in the assay with OVCAR-3 ovarian; 3.06 µM in the assay on MDA-MB-231 breast; 3.24 µM in the assay on CCRF-CEM leukemia; 2.56 µM in the assay with HT29 colon; 3.12 µM with UACC-257 melanoma. Moreover, the TGI with RXF 393 renal worked out at 1.25 µM.

Take `CC(C)[Si]1(C(C)C)OCC2OC3(CO)C(Oc4nc(=O)ccn43)C2O[Si](C(C)C)(C(C)C)O1` (stereo unspecified): the TGI in the assay with TK-10 renal is 32.1 µM; in the assay on DU-145 prostate, 27.7 µM; in the assay with ACHN renal it was 29.3 µM; with SK-MEL-2 melanoma it was 30.5 µM; in the assay with SR leukemia, 47.1 µM; with 786-0 renal, 28.9 µM. Further, the TGI with HCT-15 colon came out at 28.5 µM; in the assay on LOX IMVI melanoma it was 28.7 µM; in the assay with T-47D breast, 24 µM; in the assay with MDA-MB-231 breast, 23.2 µM; in the assay on CCRF-CEM leukemia it was 24.6 µM; with HT29 colon, 27.2 µM. Further, the TGI was 30.1 µM in the assay with UACC-257 melanoma, 18.3 µM in the assay on RXF 393 renal, 18.6 µM in the assay on MCF7 breast and 45.9 µM in the assay with HS 578T breast.

On to `C=CCN(C(=O)CNC(=O)C(F)(F)F)c1cc(OCc2ccccc2)c2c(c1)c(C)cn2S(=O)(=O)c1ccccc1`, for which the TGI in the assay on NCI-H522 lung, with TK-10 renal, with DU-145 prostate, in the assay on ACHN renal, in the assay on SK-MEL-2 melanoma and in the assay on 786-0 renal was > 100 µM throughout. Further, the TGI with HCT-15 colon, in the assay with LOX IMVI melanoma, in the assay on T-47D breast, with OVCAR-3 ovarian, in the assay on MDA-MB-231 breast and in the assay on CCRF-CEM leukemia was > 100 µM throughout. In addition, the TGI in the assay on HT29 colon, with UACC-257 melanoma, in the assay on RXF 393 renal, in the assay with MCF7 breast and in the assay on HS 578T breast was > 100 µM in each case.

For the molecule `C=C(Nc1nc2ccc(C)cc2s1)C(=O)C(CC)C(=O)C(CC)CC1C(=O)NC(=O)NC1=O` (stereo unspecified), the TGI in the assay on NCI-H522 lung, with TK-10 renal, with MDA-N, with DU-145 prostate, in the assay on ACHN renal and in the assay with SK-MEL-2 melanoma was > 100 µM throughout. The TGI with 786-0 renal, with HCT-15 colon, in the assay on LOX IMVI melanoma, in the assay with OVCAR-3 ovarian, in the assay on MDA-MB-231 breast and in the assay on CCRF-CEM leukemia was > 100 µM in each case. The TGI with UACC-257 melanoma, in the assay on RXF 393 renal, in the assay on MCF7 breast and in the assay on HS 578T breast was > 100 µM each time.

Consider `CC1(C)OC[C@@H]([C@H](O)C2C=CC(=O)S2)O1` (stereo partly specified), for which the TGI in the assay with TK-10 renal is > 100 µM; in the assay with MDA-N it was > 100 µM; in the assay with DU-145 prostate, 56.6 µM; with ACHN renal it was 49.2 µM; with SK-MEL-2 melanoma it was 77.1 µM; in the assay on 786-0 renal it was 59.3 µM. Further, the TGI in the assay with HCT-15 colon is 35.5 µM; in the assay with LOX IMVI melanoma, 31.7 µM; with A498 renal, 51.1 µM; in the assay with OVCAR-3 ovarian, > 100 µM; in the assay on MDA-MB-231 breast, 70 µM; with CCRF-CEM leukemia it was 97.9 µM. The TGI was 55.5 µM in the assay with HT29 colon, > 100 µM in the assay with UACC-257 melanoma, 53.5 µM in the assay with RXF 393 renal and > 100 µM in the assay with MCF7 breast.

`O=C1c2ccccc2C(=O)c2c1nc1ccccc1c2-c1cncc(-c2c3c(nc4ccccc24)C(=O)c2ccccc2C3=O)c1`: the TGI in the assay on NCI-H522 lung was 19.6 µM; in the assay on TK-10 renal, > 100 µM; with DU-145 prostate, 16.1 µM; with ACHN renal it was > 55.7 µM; in the assay with SK-MEL-2 melanoma it was 44.6 µM; in the assay on SR leukemia, 7.9 µM. In addition, the TGI in the assay with 786-0 renal was 67.4 µM; with HCT-15 colon it was 9.34 µM; in the assay on LOX IMVI melanoma it was 13.8 µM; with A498 renal, 26.7 µM; in the assay on T-47D breast, 57.6 µM; in the assay on OVCAR-3 ovarian, > 75.6 µM. Also, the TGI in the assay with MDA-MB-231 breast was 98.2 µM; with CCRF-CEM leukemia, 43.9 µM; with HT29 colon, 27.8 µM; in the assay with UACC-257 melanoma it was 22.4 µM; in the assay with RXF 393 renal, > 100 µM; with MCF7 breast, 32.8 µM. In the assay on HS 578T breast, the TGI turned out to be 14.7 µM.
